# Measurements reported in paper PMC6429600, “Development of a dual-functional conjugate of antigenic peptide and Fc-III mimetics (DCAF) for targeted antibody blocking” (Chemical Science, 2019).
# What was measured:
# Ab4 (mAb35 antibody) = test: SPR binding to immobilized Ab4; details: mean ± SD (n = 3), read-out: Kd of Ab4 binding (apparent Kd for DCAF)
# [1] = biological target: Ab2 (monoclonal antibody raised against pep2); test: SPR binding to immobilized Ab2; parameters: species or system mouse; details: BIAcore T200, Ab2 immobilized on CM5 chip, PBS with 0.005% surfactant P20, mean ± SD (n = 3), read-out: Kd of Ab2 binding (apparent Kd for DCAF)
# Method: (§1) Surface plasmon resonance (SPR) experiments were performed using a BIAcore T200 instrument (GE healthcare) equipped with a CM5 sensor chip. Briefly, Ab1, Ab2 or Ab3 were directly immobilized onto a CM5 sensor chip using an EDC/NHS amine coupling kit. A blank channel was used as the negative control. For SPR measurements, all peptides were directly dissolved in running buffer (PBS with 0.005% surfactant P20). The analytes were injected and disassociated with immobilized IgG at a flow rate of 30 μl min^–1. After each binding and dissociation cycle, the surface of a sensor chip was regenerated using 10 mM glycine-HCl buffer (pH 2.0). The sensorgrams were corrected by subtraction of the signal from the negative control flow path and curve-fitted to calculate the reaction rate and constants using Evaluation 1.0 software.
# [2] = biological target: Ab3 (monoclonal antibody raised against pep3); test: SPR binding to immobilized Ab3; parameters: species or system mouse; details: BIAcore T200, Ab3 immobilized on CM5 chip, PBS with 0.005% surfactant P20, mean ± SD (n = 3), read-out: Kd of Ab3 binding (apparent Kd for DCAF)
# Method: as §1
# Ab1 (4G2 antibody) = test: SPR binding to immobilized Ab1; parameters: species or system mouse; details: BIAcore T200, Ab1 immobilized on CM5 chip, PBS with 0.005% surfactant P20, 30 μl/min, mean ± SD (n = 3), read-out: Kd of Ab1 binding (apparent Kd for DCAF)
# Method: as §1
# Ab2 = test: ELISA competition assay of Ab2 binding to GST-fused pep2; format: biochemical, mouse; details: sandwich ELISA, GST-fused pep2, Ab2 10 nM, OD450
# Method: A standard sandwich ELISA assay was used for competition experiment. Briefly, 96-well microtiter plates were coated overnight with anti-GST antibody (10 nM) at 4 °C and blocked with 200 μL of 1% BSA in PBS at room temperature for 1 h. Then the artificial antigen (0.5 nM), pep2 coupled with the GST protein, was added to the wells and incubated for 2 h at RT. The plates were washed with PBS/0.05% Tween 20, and Ab2 (10 nM) or Ab2 (10 nM) plus other ligands, antigen, Fc-III or DCAF2 at series concentrations, were added and incubated for 2 h at RT. […] For a C1q binding assay, rat C1q ELISA kit was used following the protocol of the manufacturer. Briefly, incubated 25 ng mL^–1 C1q and series concentrations of Ab4 or DCAF4 with a pre-coated C1q capture antibody for 2 h at RT. Then HRP linked detection antibody was added for 1 h at RT and the TMB substrate was used to measure the concentration of C1q at OD450.
# [3] = biological target: 4G2 antibody (Ab1), ADE-inducible mouse monoclonal IgG (mouse); test: SPR; BIAcore T200; antibody (IgG) immobilised on a CM5 chip by EDC/NHS amine coupling; peptides as analytes in PBS with 0.005% surfactant P20, 30 ul/min; regeneration 10 mM glycine-HCl pH 2.0; apparent Kd for DCAF, bivalent fit gives Kd1 and Kd2
# [4] = biological target: mAb35 (Ab4), commercial antibody that blocks the acetylcholine receptor; test: SPR
compound,measurement,setting,value
CC(C)C[C@@H]1NC(=O)[C@H](Cc2c[nH]cn2)NC(=O)[C@H](Cc2c[nH]c3ccccc23)NC(=O)[C@H](C)NC(=O)[C@@H]2CSSC[C@H](NC(=O)[C@H](Cc3c[nH]c4ccccc34)NC(=O)[C@H](C(C)C)NC(=O)[C@H](CC(C)C)NC(=O)[C@H](CCC(=O)O)NC(=O)CNC1=O)C(=O)N[C@@H]([C@@H](C)O)C(=O)N[C@H](C(=O)O)CSSC[C@H](N)C(=O)N[C@@H](CC(=O)O)C(=O)N2 [Fc-III-4C],Kd,Ab4 (mAb35 antibody),13.99 ± 0.03 nM
CC(C)C[C@@H]1NC(=O)[C@H](Cc2c[nH]cn2)NC(=O)[C@H](Cc2c[nH]c3ccccc23)NC(=O)[C@H](C)NC(=O)[C@@H](NC(=O)[C@@H](N)CC(=O)O)CSSC[C@@H](C(=O)N[C@H](C(=O)O)[C@@H](C)O)NC(=O)[C@H](Cc2c[nH]c3ccccc23)NC(=O)[C@H](C(C)C)NC(=O)[C@H](CC(C)C)NC(=O)[C@H](CCC(=O)O)NC(=O)CNC1=O [Fc-III],Kd,[1],169 ± 18 nM
same,Kd,[2],134 ± 6 nM
same,Kd,Ab1 (4G2 antibody),239 ± 2 nM
same,inhibition of antigen–antibody (pep2–Ab2) binding,Ab2,did not inhibit
Fc-III peptide,Kd,[3],239 nM
Fc-III-4C peptide,Kd,[4],14 nM
